Source: patent US20260183303A1, “PDK1 REGULATORY COMPOUND AND COMPOSITION CONTAINING THE SAME” (PROVIBIO CO., LTD., priority 2024, published 2026)

System: T cells isolated from mouse spleens
Test: T cell proliferation inhibition (CFSE flow cytometry, anti-CD3/anti-CD28 activation)
Type: cell-based, C57BL/6 mice
Settings: mouse spleen T cells, CD3/CD28 activated, cultured three days
Description: To verify the T cell proliferation inhibitory effect of the compounds according to the present invention, the following experiment was performed based on flow cytometry analysis using carboxyfluorescein diacetate succinimidyl ester (CFSE), a fluorescent dye that binds to intracellular molecules via covalent bonds.
Spleens were extracted from 7-week-old C57BL/6 mice, ground, and then separated into single cells using a strainer ([…], SPL). Red blood cells were removed using ACK (Ammonium-Chloride-Potassium) lysis buffer to isolate white blood cells.
Finally, using a MACS Magnetic Stand and LS column, T cells were isolated from the spleen.
The T cells isolated from the spleen were resuspended in 1 mL of free medium (RPMI-1640+200 U/mL penicillin+200 μg/mL streptomycin), and 0.3 μL of CFSE (10 mM) was added. The mixture was incubated at 37° C. for 5 minutes.
Free medium (10 mL) was added to stop the reaction, and the cells were centrifuged to obtain the cell pellet.
RPMI 1640 medium containing 10% FBS, 100 U/mL penicillin, 100 μg/mL streptomycin, and resuspended the cells. The cells were then seeded into a 96-well plate at a density of 2×10^5 cells per well and activated with CD3 and CD28 antibodies ([…]) to activate T cells.
The compound diluted in DMSO was added at concentrations of 10 nM, 100 nM, 1 μM, […], 30 μM, and 50 µM, with three wells per concentration, and cultured at 37° C. and 5% CO2 for three days. The cells were then analyzed using a FACS Canto instrument.
The proliferation inhibition rate (%) was calculated using the following formula: […]

CC(C)(C)OC(=O)N[C@@H]1CCCN(CCCCCCCCCCCCNC(=O)c2cccnc2N)C1 [Compound 117, tert-butyl-(R)-(1-(12-(2-aminonicotinamido)dodecyl)piperidin-3-yl)carbamate]
inhibition at 0.01 µM (Mus musculus, T-cell, 72 h, 10 nM, read-out: Proliferation inhibition rate (%)): -15.8%
inhibition at 0.1 µM (Mus musculus, T-cell, 72 h, 100 nM, read-out: Proliferation inhibition rate (%)): 100%
inhibition at 1 µM (Mus musculus, T-cell, 72 h, 1 μM, read-out: Proliferation inhibition rate (%)): 100%
inhibition at 10 µM (Mus musculus, T-cell, 72 h, 10 μM, read-out: Proliferation inhibition rate (%)): 100%
inhibition at 30 µM (Mus musculus, T-cell, 72 h, 30 μM, read-out: Proliferation inhibition rate (%)): 100%
inhibition at 50 µM (Mus musculus, T-cell, 72 h, 50 μM, read-out: Proliferation inhibition rate (%)): 100%

COC1CCN(CCCCCCCCCCCCNC(=O)c2cccnc2N)CC1 [Compound 94, 2-amino-N-(12-(4-methoxypiperidin-1-yl)dodecyl) nicotinamide]
Proliferation inhibition rate (%) (100 nM): 100.00%
Proliferation inhibition rate (%) (1 μM): 100.00%
Proliferation inhibition rate (%) (10 μM): 100.00%
Proliferation inhibition rate (%) (30 μM): 100.00%
Proliferation inhibition rate (%) (50 μM): 100.00%

Nc1ncccc1C(=O)NCCCCCCCCCCCCN1CCc2ccccc2C1 [Compound 17, 2-Amino-N-(12-(3,4-dihydroisoquinolin-2(1H)-yl)dodecyl) nicotinamide]
Proliferation inhibition rate (%) (10 nM, listed as PBK-2024-004, 0.01 µM): 0.00%
Proliferation inhibition rate (%) (100 nM, listed as PBK-2024-004, 0.1 µM): −14.00%
Proliferation inhibition rate (%) (1 μM, listed as PBK-2024-004, 1 µM): 100.00%
Proliferation inhibition rate (%) (10 μM, listed as PBK-2024-004, 10 µM): 100.00%

Nc1ncccc1C(=O)NCCCCCCCCCCCCN1CCC(O)CC1 [Compound 48, 2-Amino-N-(12-(4-hydroxypiperidin-1-yl)dodecyl) nicotinamide]
Proliferation inhibition rate (%) (100 nM): 100.00%
Proliferation inhibition rate (%) (1 μM): 100.00%
Proliferation inhibition rate (%) (10 μM): 100.00%
Proliferation inhibition rate (%) (30 μM): 100.00%
Proliferation inhibition rate (%) (50 μM): 100.00%

CN1CCN(CCCCCCCCCCCCNC(=O)c2cccnc2F)CC1 [Compound 121, 2-fluoro-N-(12-(4-methylpiperazin-1-yl)dodecyl) nicotinamide]
Proliferation inhibition rate (%) (10 nM): 0.00%
Proliferation inhibition rate (%) (100 nM): 0.00%
Proliferation inhibition rate (%) (1 μM): 0.00%
Proliferation inhibition rate (%) (10 μM): 30.00%
Proliferation inhibition rate (%) (30 μM): 100.00%
Proliferation inhibition rate (%) (50 μM): 100.00%

CC1CN(C)C(CCCCCCCCCCCCNc2ccc3cncnc3n2)N1 (stereo not shown) [Compound 43]
Proliferation inhibition rate (%) (100 nM): 100.00%
Proliferation inhibition rate (%) (1 μM): 100.00%
Proliferation inhibition rate (%) (10 μM): 100.00%
Proliferation inhibition rate (%) (30 μM): 100.00%
Proliferation inhibition rate (%) (50 μM): 100.00%

CC1CN(CCCCCCCCCCCCNC(=O)c2cccnc2N)C(C)CN1.Cl (stereo not shown) [Compound 36, 2-Amino-N-(12-(2,5-dimethylpiperazin-1-yl)dodecyl) nicotinamide hydrochloride]
Proliferation inhibition rate (%) (100 nM): 100.00%
Proliferation inhibition rate (%) (1 μM): 100.00%
Proliferation inhibition rate (%) (10 μM): 100.00%
Proliferation inhibition rate (%) (30 μM): 100.00%
Proliferation inhibition rate (%) (50 μM): 100.00%

CC1(C)CCN(CCCCCCCCCCCCNC(=O)c2cccnc2N)C1 [Compound 22, 2-Amino-N-(12-(3,3-dimethylpyrrolidin-1-yl)dodecyl) nicotinamide]
Proliferation inhibition rate (%) (10 nM): −0.80%
Proliferation inhibition rate (%) (100 nM): 100.00%
Proliferation inhibition rate (%) (1 μM): 100.00%
Proliferation inhibition rate (%) (10 μM): 100.00%
Proliferation inhibition rate (%) (30 μM): 100.00%
Proliferation inhibition rate (%) (50 μM): 100.00%

CC1CCCN(CCCCCCCCCCCCNC(=O)c2cccnc2N)CC1 (stereo not shown) [Compound 39, 2-Amino-N-(12-(4-methylazepan-1-yl)dodecyl) nicotinamide]
Proliferation inhibition rate (%) (100 nM): 100.00%
Proliferation inhibition rate (%) (1 μM): 100.00%
Proliferation inhibition rate (%) (10 μM): 100.00%
Proliferation inhibition rate (%) (30 μM): 100.00%
Proliferation inhibition rate (%) (50 μM): 100.00%

CC(C)(C)OC(=O)N1CCN(CCCCCCCCCCCCNC(=O)c2cccnc2N)CC1 [Compound 111, tert-butyl-4-(12-(2-aminonicotinamido)dodecyl) piperazine-1-carboxylate]
Proliferation inhibition rate (%) (10 nM): 0.00%
Proliferation inhibition rate (%) (100 nM): 100.00%
Proliferation inhibition rate (%) (1 μM): 100.00%
Proliferation inhibition rate (%) (10 μM): 100.00%
Proliferation inhibition rate (%) (30 μM): 100.00%
Proliferation inhibition rate (%) (50 μM): 100.00%

Nc1ncccc1C(=O)NCCCCCCCCCCCCN1CCOC1=O [Compound 127, 2-amino-N-(12-(2-oxooxazolidin-3-yl)dodecyl) nicotinamide]
Proliferation inhibition rate (%) (10 μM): 100.00%
Proliferation inhibition rate (%) (30 μM): 100.00%
Proliferation inhibition rate (%) (50 μM): 100.00%

C[C@H]1CNCCN1CCCCCCCCCCCCNC(=O)c1cccnc1N.Cl [Compound 37, (S)-2-Amino-N-(12-(2-methylpiperazin-1-yl)dodecyl) nicotinamide hydrochloride]
Proliferation inhibition rate (%) (1 μM): 100.00%
Proliferation inhibition rate (%) (10 μM): 100.00%
Proliferation inhibition rate (%) (30 μM): 100.00%
Proliferation inhibition rate (%) (50 μM): 100.00%

CN(CCCCCCCCCCCCNC(=O)c1cccnc1N)C1CCCCC1 [Compound 34, 2-Amino-N-(12-(cyclohexyl(methyl)amino)dodecyl) nicotinamide]
Proliferation inhibition rate (%) (100 nM): 100.00%
Proliferation inhibition rate (%) (1 μM): 100.00%
Proliferation inhibition rate (%) (10 μM): 100.00%
Proliferation inhibition rate (%) (30 μM): 100.00%
Proliferation inhibition rate (%) (50 μM): 100.00%

COC1CCN(CCCCCCCCCCCCNC(=O)c2cccnc2N)C1 (stereo not shown) [Compound 32, 2-Amino-N-(12-(3-methoxypyrrolidin-1-yl)dodecyl) nicotinamide]
Proliferation inhibition rate (%) (10 nM, listed as PBK-2024-024, 0.01 µM): 0.29%
Proliferation inhibition rate (%) (50 μM): 100.00%

COC1CCN(CCCCCCCCCCCCNC(=O)c2cccnc2N)C1 (stereo not shown) [Compound 126, 2-amino-N-(12-(3-methoxypyrrolidin-1-yl)dodecyl) nicotinamide]
Proliferation inhibition rate (%) (10 nM, listed as K-PB-48, 0.01 µM): 0.00%
Proliferation inhibition rate (%) (100 nM): 100.00%
Proliferation inhibition rate (%) (1 μM): 100.00%
Proliferation inhibition rate (%) (10 μM): 100.00%
Proliferation inhibition rate (%) (30 μM): 100.00%
Proliferation inhibition rate (%) (50 μM): 100.00%

Nc1ncccc1C(=O)NCCCCCCCCCCCCN1CCN(C=O)CC1 [Compound 97, 2-amino-N-(12-(4-formylpiperazin-1-yl)dodecyl) nicotinamide]
Proliferation inhibition rate (%) (1 μM): 100.00%
Proliferation inhibition rate (%) (10 μM): 100.00%
Proliferation inhibition rate (%) (30 μM): 100.00%
Proliferation inhibition rate (%) (50 μM): 100.00%

Nc1ncccc1C(=O)NCCCCCCCCCCCCN1CC=CC1 [Compound 129, 2-amino-N-(12-(2,5-dihydro-1H-pyrrol-1-yl)dodecyl) nicotinamide]
Proliferation inhibition rate (%) (10 nM): 0.00%
Proliferation inhibition rate (%) (100 nM): 90.00%
Proliferation inhibition rate (%) (1 μM): 100.00%
Proliferation inhibition rate (%) (10 μM): 100.00%
Proliferation inhibition rate (%) (30 μM): 100.00%
Proliferation inhibition rate (%) (50 μM): 100.00%

Nc1ncccc1C(=O)NCCCCCCCCCCCCN1CCN(C(=O)C2CC2)CC1 [Compound 99, 2-amino-N-(12-(4-(cyclopropanecarbonyl)piperazin-1-yl)dodecyl) nicotinamide]
Proliferation inhibition rate (%) (10 nM): −12.13%
Proliferation inhibition rate (%) (100 nM): 100.00%
Proliferation inhibition rate (%) (1 μM): 100.00%
Proliferation inhibition rate (%) (10 μM): 100.00%
Proliferation inhibition rate (%) (30 μM): 100.00%
Proliferation inhibition rate (%) (50 μM): 100.00%

Nc1ncccc1C(=O)NCCCCCCCCCCCCNC1CCOC1 (stereo not shown) [Compound 128, 2-amino-N-(12-((tetrahydrofuran-3-yl)amino)dodecyl) nicotinamide]
Proliferation inhibition rate (%) (100 nM): 100.00%
Proliferation inhibition rate (%) (1 μM): 100.00%
Proliferation inhibition rate (%) (10 μM): 100.00%
Proliferation inhibition rate (%) (30 μM): 100.00%
Proliferation inhibition rate (%) (50 μM): 100.00%
